Experimental data taken from the supplement of paper PMC10627819.

Tests used:
Experiment in all cases: Bliss interaction score (quartile over a dose matrix) (fitness difference); higher = more antagonism (negative = synergy)
S. pneumoniae D39V = tested on: S. pneumoniae D39V
Method in brief: (§1)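 Growth in each well was taken as OD595 at entry into stationary phase. Dividing by the plate's robust no-drug mean and capping at 1 gave fitness, and single-drug fitness was inferred from the combination data. The Bliss score, observed minus product-expected fitness, is summarised by quartiles over technical, biological and donor/recipient replicates.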

S. aureus Newman = tested on: S. aureus Newman
Method in brief: as §1

B. subtilis 168 = tested on: B. subtilis 168
Method in brief: as §1

S. aureus DSM 20231 = tested on: S. aureus DSM 20231
Method in brief: as §1
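Further: first quartile when negative (synergy) and third quartile when positive (antagonism).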

## C[C@H]1COc2c(N3CCN(C)CC3)c(F)cc3c(=O)c(C(=O)O)cn1c23 [Levofloxacin] + CCCCCCCCCC(=O)N[C@@H]1[C@H]([C@@H]([C@H](O[C@H]1OC2=C3C=C4C=C2OC5=C(C=C(C=C5)[C@H]([C@H]6C(=O)N[C@@H](C7=C(C(=CC(=C7)O)OC8[C@H]([C@H]([C@@H]([C@H](O8)CO)O)O)O)C9=C(C=CC(=C9)[C@H](C(=O)N6)NC(=O)[C@@H]4NC(=O)[C@@H]1C2=CC(=CC(=C2)OC2=C(C=CC(=C2)[C@H](C(=O)N[C@H](CC2=CC(=C(O3)C=C2)Cl)C(=O)N1)N)O)O)O)C(=O)O)O[C@H]1[C@@H]([C@H]([C@@H]([C@H](O1)CO)O)O)NC(=O)C)Cl)CO)O)O [Teicoplanin]
S. pneumoniae D39V; main component drawn
  Bliss interaction score: -0.0681
S. aureus Newman; main component drawn
  Bliss interaction score: -0.0552
B. subtilis 168; main component drawn
  Bliss interaction score: 0.0334
S. aureus DSM 20231; main component drawn
  Bliss interaction score: -0.0673

## CO/N=C(\C(=O)N[C@@H]1C(=O)N2C(C(=O)[O-])=C(C[N+]3(C)CCCC3)CS[C@H]12)c1csc(N)n1 [Cefepime] + CC[C@H]1OC(=O)[C@H](C)[C@@H](O[C@H]2C[C@@](C)(OC)[C@@H](O)[C@H](C)O2)[C@H](C)[C@@H](O[C@@H]2O[C@H](C)C[C@H](N(C)C)[C@H]2O)[C@](C)(O)C[C@@H](C)C(=O)[C@H](C)[C@@H](O)[C@]1(C)O [Erythromycin]
S. pneumoniae D39V
  Bliss interaction score: 0.0938
S. aureus Newman
  Bliss interaction score: 0.0704
B. subtilis 168
  Bliss interaction score: 0.0672
S. aureus DSM 20231
  Bliss interaction score: 0.0701

## CO/N=C(\C(=O)N[C@@H]1C(=O)N2C(C(=O)[O-])=C(C[N+]3(C)CCCC3)CS[C@H]12)c1csc(N)n1 [Cefepime] + O=C(O)c1cn(C2CC2)c2cc(N3CCNCC3)c(F)cc2c1=O [Ciprofloxacin]
S. pneumoniae D39V
  Bliss interaction score: 0.147
S. aureus Newman
  Bliss interaction score: 0.0601
B. subtilis 168
  Bliss interaction score: -0.193
S. aureus DSM 20231
  Bliss interaction score: -0.0463

## CN(C)C(=O)C(CCN1CCC(O)(c2ccc(Cl)cc2)CC1)(c1ccccc1)c1ccccc1 [Loperamide] + Oc1cc(Cl)ccc1Oc1ccc(Cl)cc1Cl [Triclosan]
S. pneumoniae D39V
  Bliss interaction score: -0.179
S. aureus Newman
  Bliss interaction score: 0.0213
B. subtilis 168
  Bliss interaction score: 0.0255
S. aureus DSM 20231
  Bliss interaction score: -0.0746

## CC1(C)S[C@@H]2[C@H](NC(=O)[C@H](N)c3ccc(O)cc3)C(=O)N2[C@H]1C(=O)O [Amoxicillin] + CC[C@H]1OC(=O)[C@H](C)[C@@H](O[C@H]2C[C@@](C)(OC)[C@@H](O)[C@H](C)O2)[C@H](C)[C@@H](O[C@@H]2O[C@H](C)C[C@H](N(C)C)[C@H]2O)[C@](C)(O)C[C@@H](C)C(=O)[C@H](C)[C@@H](O)[C@]1(C)O [Erythromycin]
S. pneumoniae D39V
  Bliss interaction score: 0.0883
S. aureus Newman
  Bliss interaction score: -0.0553
B. subtilis 168
  Bliss interaction score: 0.0751
S. aureus DSM 20231
  Bliss interaction score: -0.023

## CC1(C)S[C@@H]2[C@H](NC(=O)[C@H](N)c3ccc(O)cc3)C(=O)N2[C@H]1C(=O)O [Amoxicillin] + CN(C)[C@@H]1C(O)=C(C(N)=O)C(=O)[C@@]2(O)C(O)=C3C(=O)c4c(O)ccc(Cl)c4[C@@](C)(O)[C@H]3C[C@@H]12 [Clortetracycline]
S. pneumoniae D39V
  Bliss interaction score: 0.168
S. aureus Newman
  Bliss interaction score: -0.0669
B. subtilis 168
  Bliss interaction score: 0.164
S. aureus DSM 20231
  Bliss interaction score: 0.0294

## C[C@H]1COc2c(N3CCN(C)CC3)c(F)cc3c(=O)c(C(=O)O)cn1c23 [Levofloxacin] + CO[C@@]12[C@H](COC(N)=O)C3=C(C(=O)C(C)=C(N)C3=O)N1C[C@@H]1N[C@@H]12 [MitomycinC]
S. pneumoniae D39V
  Bliss interaction score: -0.0941
S. aureus Newman
  Bliss interaction score: 0.0429
B. subtilis 168
  Bliss interaction score: 0.0422
S. aureus DSM 20231
  Bliss interaction score: 0.0462

## CC1(C)S[C@@H]2[C@H](NC(=O)[C@H](N)c3ccc(O)cc3)C(=O)N2[C@H]1C(=O)O [Amoxicillin] + Oc1cc(Cl)ccc1Oc1ccc(Cl)cc1Cl [Triclosan]
S. pneumoniae D39V
  Bliss interaction score: -0.0734
S. aureus Newman
  Bliss interaction score: 0.0346
B. subtilis 168
  Bliss interaction score: -0.0443
S. aureus DSM 20231
  Bliss interaction score: 0.028

## CCCCCCCCCC(=O)N[C@@H](Cc1c[nH]c2ccccc12)C(=O)N[C@H](CC(N)=O)C(=O)N[C@@H](CC(=O)O)C(=O)N[C@@H]1C(=O)NCC(=O)N[C@@H](CCCN)C(=O)N[C@@H](CC(=O)O)C(=O)N[C@H](C)C(=O)N[C@@H](CC(=O)O)C(=O)NCC(=O)N[C@H](CO)C(=O)N[C@@H]([C@H](C)CC(=O)O)C(=O)N[C@@H](CC(=O)c2ccccc2N)C(=O)O[C@@H]1C [Daptomycin] + CC1(C)S[C@@H]2[C@H](NC(=O)Cc3ccccc3)C(=O)N2[C@H]1C(=O)O [PenicillinG]
S. pneumoniae D39V
  Bliss interaction score: 0.107
S. aureus Newman
  Bliss interaction score: 0.0645
B. subtilis 168
  Bliss interaction score: 0.101
S. aureus DSM 20231
  Bliss interaction score: 0.0411

## CO/N=C(\C(=O)N[C@@H]1C(=O)N2C(C(=O)[O-])=C(C[N+]3(C)CCCC3)CS[C@H]12)c1csc(N)n1 [Cefepime] + CC1(C)S[C@@H]2[C@H](NC(=O)Cc3ccccc3)C(=O)N2[C@H]1C(=O)O [PenicillinG]
S. pneumoniae D39V
  Bliss interaction score: -0.0873
S. aureus Newman
  Bliss interaction score: -0.0463
B. subtilis 168
  Bliss interaction score: -0.0668
S. aureus DSM 20231
  Bliss interaction score: 0.0733

## CN(C)C(=O)C(CCN1CCC(O)(c2ccc(Cl)cc2)CC1)(c1ccccc1)c1ccccc1 [Loperamide] + CCCCCCCCCC(=O)N[C@@H]1[C@H]([C@@H]([C@H](O[C@H]1OC2=C3C=C4C=C2OC5=C(C=C(C=C5)[C@H]([C@H]6C(=O)N[C@@H](C7=C(C(=CC(=C7)O)OC8[C@H]([C@H]([C@@H]([C@H](O8)CO)O)O)O)C9=C(C=CC(=C9)[C@H](C(=O)N6)NC(=O)[C@@H]4NC(=O)[C@@H]1C2=CC(=CC(=C2)OC2=C(C=CC(=C2)[C@H](C(=O)N[C@H](CC2=CC(=C(O3)C=C2)Cl)C(=O)N1)N)O)O)O)C(=O)O)O[C@H]1[C@@H]([C@H]([C@@H]([C@H](O1)CO)O)O)NC(=O)C)Cl)CO)O)O [Teicoplanin]
S. pneumoniae D39V; main component drawn
  Bliss interaction score: -0.0953
S. aureus Newman; main component drawn
  Bliss interaction score: -0.0955
B. subtilis 168; main component drawn
  Bliss interaction score: 0.0883
S. aureus DSM 20231; main component drawn
  Bliss interaction score: -0.114
